{"source": "paper PMC8962522", "about": "“Direct interaction of TrkA/CD44v3 is essential for NGF-promoted aggressiveness of breast cancer cells” (Journal of Experimental & Clinical Cancer Research : CR, 2022)", "tested_on": "MDA-MB-231 xenograft tumors", "assay": "MDA-MB-231 xenograft tumor growth in SCID mice", "type": "in vivo", "settings": "injected near the tumor five times in a 3-day interval, from mean tumor volume 100 mm^3; versus PBS; 10 mice per group", "method": "MDA-MB-231 cells (2 × 10^6) were subcutaneously injected into the flanks of six-week-old female SCID mice. One month after injection, the mice were randomized into 2 groups and injected near the tumor with CD44v3 mimetic peptide 4 (P4) or not (control) five times in a 3-day interval. Tumor volume was determined throughout the experiment by measuring the length (l) and width (w) and was calculated as π/6 × l × w × […]. Animals were sacrificed using isoflurane anesthesia when the tumors reached a similar size, and the organs were immediately removed and stored in liquid nitrogen.\nTo assess the role of TrkA/CD44v3 in vivo, SCID mice were injected with MDA-MB-231 cells to generate xenografts. Primary tumor development and metastasis (to the lung, brain and liver) were analyzed (Fig. 6). […] The development of primary tumors was measured throughout the experiments. […] We also assessed the metastatic burden. […] Micrometastases were detected at the end of the experiment by PCR of human microglobulin in xenograft mice treated with or without the CD44v3 mimetic peptide (Fig. 6E). […]\nFig. 6 CD44v3 mimetic peptide 4 blocks MDA-MB-231 tumor growth and metastasis. […] Body weight (B) and tumor volume (C) were measured following CD44v3 mimetic peptide administration (10 mice per group). […]"}
{"sequence": "IDDDEDFISST [Peptide 4, mimetic peptide 4 (…) corresponding to the C-terminal region of CD44v3]", "values": [{"measurement": "tumor growth (in words)", "result": "significantly inhibited the growth of MDA-MB-231 cells in xenograft tumors"}]}
